Experimental findings from ChEMBL document CHEMBL3627608, “Crystal structures of human RIP2 kinase catalytic domain complexed with ATP-competitive inhibitors: Foundations for understanding inhibitor selectivity” (Bioorg Med Chem, 2015) are described below.

In assay [1] the target is Ribosomal protein S6 kinase alpha-2 (Homo sapiens) (UniProt Q15349). In words: Inhibition of RSK3 (unknown origin) at 10 uM after 120 mins P33 radiolabeled kinase activity assay.
Assay [2] addresses Tyrosine-protein kinase Fyn (Homo sapiens) (UniProt P06241). In words: Inhibition of FYN (unknown origin) at 10 uM after 120 mins P33 radiolabeled kinase activity assay.
For assay [3], the target named is BDNF/NT-3 growth factors receptor (Homo sapiens) (UniProt Q16620). Description: Inhibition of TRKB (unknown origin) at 10 uM after 120 mins P33 radiolabeled kinase activity assay.
The species entered for another assay is Homo sapiens. In words: Inhibition of PKG2 (unknown origin) at 10 uM after 120 mins P33 radiolabeled kinase activity assay.
Assay [4] concerns the target cAMP-dependent protein kinase (PKA) (Homo sapiens) (UniProt P22694+P17612+P22612). In words: Inhibition of PKA (unknown origin) at 10 uM after 120 mins P33 radiolabeled kinase activity assay. It counts as protein assay.
Assay [5] addresses Serine/threonine-protein kinase WNK2 (Homo sapiens) (UniProt Q9Y3S1). In words: Inhibition of WNK2 (unknown origin) at 10 uM after 120 mins P33 radiolabeled kinase activity assay.
In assay [6] the target is Serine/threonine-protein kinase 32C (Homo sapiens) (UniProt Q86UX6). Description: Inhibition of STK32C (unknown origin) at 10 uM after 120 mins P33 radiolabeled kinase activity assay.
Serine/threonine-protein kinase 32C (Homo sapiens), sequence (Q86UX6 whole entry): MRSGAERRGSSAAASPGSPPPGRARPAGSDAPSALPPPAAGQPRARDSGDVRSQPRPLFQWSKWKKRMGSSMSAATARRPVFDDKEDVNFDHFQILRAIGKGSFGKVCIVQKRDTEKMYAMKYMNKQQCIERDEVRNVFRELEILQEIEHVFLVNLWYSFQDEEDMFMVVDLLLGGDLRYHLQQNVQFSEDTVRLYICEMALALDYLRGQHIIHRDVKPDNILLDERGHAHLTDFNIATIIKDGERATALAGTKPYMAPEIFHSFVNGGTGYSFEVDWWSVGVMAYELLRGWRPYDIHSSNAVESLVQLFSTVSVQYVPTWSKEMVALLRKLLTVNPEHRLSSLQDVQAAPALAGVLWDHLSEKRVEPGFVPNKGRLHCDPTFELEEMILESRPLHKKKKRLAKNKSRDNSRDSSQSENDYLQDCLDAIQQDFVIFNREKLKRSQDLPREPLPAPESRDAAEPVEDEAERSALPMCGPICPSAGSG
Assay [7] has as its target STE20-like serine/threonine-protein kinase (Homo sapiens) (UniProt Q9H2G2). Description: Inhibition of SLK (unknown origin) at 10 uM after 120 mins P33 radiolabeled kinase activity assay.
Assay [8] concerns the target T1, NUAK family SNF1-like kinase 1 (Homo sapiens) (UniProt O60285).
T1 sequence (whole entry): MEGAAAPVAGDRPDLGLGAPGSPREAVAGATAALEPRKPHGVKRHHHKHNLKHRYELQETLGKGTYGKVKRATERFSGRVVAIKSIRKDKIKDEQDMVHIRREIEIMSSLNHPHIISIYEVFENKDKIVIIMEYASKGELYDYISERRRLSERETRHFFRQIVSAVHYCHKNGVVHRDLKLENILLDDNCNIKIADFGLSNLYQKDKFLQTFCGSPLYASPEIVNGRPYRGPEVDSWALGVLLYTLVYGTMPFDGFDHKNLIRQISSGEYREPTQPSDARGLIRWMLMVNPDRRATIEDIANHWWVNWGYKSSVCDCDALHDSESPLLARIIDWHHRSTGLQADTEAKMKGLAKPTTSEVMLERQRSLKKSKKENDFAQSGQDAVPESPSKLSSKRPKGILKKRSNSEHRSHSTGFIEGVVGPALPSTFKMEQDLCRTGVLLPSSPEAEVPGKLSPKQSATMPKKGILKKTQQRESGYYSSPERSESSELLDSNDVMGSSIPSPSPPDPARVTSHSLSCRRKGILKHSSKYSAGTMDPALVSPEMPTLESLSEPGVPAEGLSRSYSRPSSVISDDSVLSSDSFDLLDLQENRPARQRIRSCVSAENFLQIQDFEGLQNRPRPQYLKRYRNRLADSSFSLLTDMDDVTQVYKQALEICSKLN
In words: Inhibition of ARK5 (unknown origin) at 10 uM after 120 mins P33 radiolabeled kinase activity assay.

In assay [9] the target is T2, Serine/threonine-protein kinase Nek1 (Homo sapiens) (UniProt Q96PY6).
T2 sequence (whole entry): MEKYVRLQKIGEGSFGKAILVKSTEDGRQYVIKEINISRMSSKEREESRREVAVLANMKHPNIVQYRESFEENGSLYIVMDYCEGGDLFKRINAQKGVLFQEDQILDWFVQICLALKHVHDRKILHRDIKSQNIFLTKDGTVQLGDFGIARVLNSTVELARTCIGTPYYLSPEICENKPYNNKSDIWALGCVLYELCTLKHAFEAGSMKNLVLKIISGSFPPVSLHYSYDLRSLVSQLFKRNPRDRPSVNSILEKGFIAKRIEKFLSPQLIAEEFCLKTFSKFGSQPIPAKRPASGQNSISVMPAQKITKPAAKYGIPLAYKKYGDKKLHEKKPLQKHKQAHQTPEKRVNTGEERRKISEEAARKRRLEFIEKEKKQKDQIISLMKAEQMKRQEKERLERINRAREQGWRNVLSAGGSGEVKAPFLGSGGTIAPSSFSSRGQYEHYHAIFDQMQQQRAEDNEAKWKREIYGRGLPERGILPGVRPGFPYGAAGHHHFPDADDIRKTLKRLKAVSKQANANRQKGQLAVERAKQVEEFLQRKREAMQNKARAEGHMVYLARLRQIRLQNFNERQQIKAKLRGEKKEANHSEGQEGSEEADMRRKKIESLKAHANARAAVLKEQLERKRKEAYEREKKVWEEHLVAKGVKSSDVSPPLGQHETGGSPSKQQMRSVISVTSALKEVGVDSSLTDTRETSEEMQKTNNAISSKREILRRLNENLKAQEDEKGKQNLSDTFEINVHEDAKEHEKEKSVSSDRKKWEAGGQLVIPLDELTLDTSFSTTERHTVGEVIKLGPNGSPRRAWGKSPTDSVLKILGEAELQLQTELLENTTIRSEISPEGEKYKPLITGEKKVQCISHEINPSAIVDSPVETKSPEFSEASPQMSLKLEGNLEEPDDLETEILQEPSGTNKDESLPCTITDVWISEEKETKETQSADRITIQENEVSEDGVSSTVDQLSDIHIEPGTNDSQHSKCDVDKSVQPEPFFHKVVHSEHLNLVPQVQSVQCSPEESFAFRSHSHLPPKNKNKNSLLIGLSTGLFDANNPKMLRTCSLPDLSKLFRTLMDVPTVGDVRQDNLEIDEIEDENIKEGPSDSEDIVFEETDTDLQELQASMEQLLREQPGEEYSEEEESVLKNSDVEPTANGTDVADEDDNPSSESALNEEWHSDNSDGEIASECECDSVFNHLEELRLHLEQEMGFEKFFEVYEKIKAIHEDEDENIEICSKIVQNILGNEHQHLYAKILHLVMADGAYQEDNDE
Description: Inhibition of NEK1 (unknown origin) at 10 uM after 120 mins P33 radiolabeled kinase activity assay.

Assay [10] deals with Ribosomal protein S6 kinase beta-1 (Homo sapiens) (UniProt P23443). Description: Inhibition of RPS6KB1 (unknown origin) at 10 uM after 120 mins P33 radiolabeled kinase activity assay.
Ribosomal protein S6 kinase beta-1 (Homo sapiens), sequence (P23443 whole entry, looked up): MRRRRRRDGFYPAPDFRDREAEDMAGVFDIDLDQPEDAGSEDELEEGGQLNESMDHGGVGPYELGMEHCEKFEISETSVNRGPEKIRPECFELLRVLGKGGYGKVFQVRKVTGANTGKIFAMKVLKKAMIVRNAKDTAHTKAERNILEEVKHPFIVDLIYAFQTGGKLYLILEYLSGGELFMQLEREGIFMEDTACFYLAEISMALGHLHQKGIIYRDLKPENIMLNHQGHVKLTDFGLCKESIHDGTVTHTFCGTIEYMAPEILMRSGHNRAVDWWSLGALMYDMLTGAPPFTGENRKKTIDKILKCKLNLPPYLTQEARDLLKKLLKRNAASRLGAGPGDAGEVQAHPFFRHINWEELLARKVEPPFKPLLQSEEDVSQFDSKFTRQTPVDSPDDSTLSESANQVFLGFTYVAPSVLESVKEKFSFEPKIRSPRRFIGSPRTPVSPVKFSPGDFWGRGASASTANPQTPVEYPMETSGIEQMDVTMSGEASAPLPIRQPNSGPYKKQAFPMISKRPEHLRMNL

Serine/threonine-protein kinase WNK2 (Homo sapiens), sequence (Q9Y3S1 whole entry): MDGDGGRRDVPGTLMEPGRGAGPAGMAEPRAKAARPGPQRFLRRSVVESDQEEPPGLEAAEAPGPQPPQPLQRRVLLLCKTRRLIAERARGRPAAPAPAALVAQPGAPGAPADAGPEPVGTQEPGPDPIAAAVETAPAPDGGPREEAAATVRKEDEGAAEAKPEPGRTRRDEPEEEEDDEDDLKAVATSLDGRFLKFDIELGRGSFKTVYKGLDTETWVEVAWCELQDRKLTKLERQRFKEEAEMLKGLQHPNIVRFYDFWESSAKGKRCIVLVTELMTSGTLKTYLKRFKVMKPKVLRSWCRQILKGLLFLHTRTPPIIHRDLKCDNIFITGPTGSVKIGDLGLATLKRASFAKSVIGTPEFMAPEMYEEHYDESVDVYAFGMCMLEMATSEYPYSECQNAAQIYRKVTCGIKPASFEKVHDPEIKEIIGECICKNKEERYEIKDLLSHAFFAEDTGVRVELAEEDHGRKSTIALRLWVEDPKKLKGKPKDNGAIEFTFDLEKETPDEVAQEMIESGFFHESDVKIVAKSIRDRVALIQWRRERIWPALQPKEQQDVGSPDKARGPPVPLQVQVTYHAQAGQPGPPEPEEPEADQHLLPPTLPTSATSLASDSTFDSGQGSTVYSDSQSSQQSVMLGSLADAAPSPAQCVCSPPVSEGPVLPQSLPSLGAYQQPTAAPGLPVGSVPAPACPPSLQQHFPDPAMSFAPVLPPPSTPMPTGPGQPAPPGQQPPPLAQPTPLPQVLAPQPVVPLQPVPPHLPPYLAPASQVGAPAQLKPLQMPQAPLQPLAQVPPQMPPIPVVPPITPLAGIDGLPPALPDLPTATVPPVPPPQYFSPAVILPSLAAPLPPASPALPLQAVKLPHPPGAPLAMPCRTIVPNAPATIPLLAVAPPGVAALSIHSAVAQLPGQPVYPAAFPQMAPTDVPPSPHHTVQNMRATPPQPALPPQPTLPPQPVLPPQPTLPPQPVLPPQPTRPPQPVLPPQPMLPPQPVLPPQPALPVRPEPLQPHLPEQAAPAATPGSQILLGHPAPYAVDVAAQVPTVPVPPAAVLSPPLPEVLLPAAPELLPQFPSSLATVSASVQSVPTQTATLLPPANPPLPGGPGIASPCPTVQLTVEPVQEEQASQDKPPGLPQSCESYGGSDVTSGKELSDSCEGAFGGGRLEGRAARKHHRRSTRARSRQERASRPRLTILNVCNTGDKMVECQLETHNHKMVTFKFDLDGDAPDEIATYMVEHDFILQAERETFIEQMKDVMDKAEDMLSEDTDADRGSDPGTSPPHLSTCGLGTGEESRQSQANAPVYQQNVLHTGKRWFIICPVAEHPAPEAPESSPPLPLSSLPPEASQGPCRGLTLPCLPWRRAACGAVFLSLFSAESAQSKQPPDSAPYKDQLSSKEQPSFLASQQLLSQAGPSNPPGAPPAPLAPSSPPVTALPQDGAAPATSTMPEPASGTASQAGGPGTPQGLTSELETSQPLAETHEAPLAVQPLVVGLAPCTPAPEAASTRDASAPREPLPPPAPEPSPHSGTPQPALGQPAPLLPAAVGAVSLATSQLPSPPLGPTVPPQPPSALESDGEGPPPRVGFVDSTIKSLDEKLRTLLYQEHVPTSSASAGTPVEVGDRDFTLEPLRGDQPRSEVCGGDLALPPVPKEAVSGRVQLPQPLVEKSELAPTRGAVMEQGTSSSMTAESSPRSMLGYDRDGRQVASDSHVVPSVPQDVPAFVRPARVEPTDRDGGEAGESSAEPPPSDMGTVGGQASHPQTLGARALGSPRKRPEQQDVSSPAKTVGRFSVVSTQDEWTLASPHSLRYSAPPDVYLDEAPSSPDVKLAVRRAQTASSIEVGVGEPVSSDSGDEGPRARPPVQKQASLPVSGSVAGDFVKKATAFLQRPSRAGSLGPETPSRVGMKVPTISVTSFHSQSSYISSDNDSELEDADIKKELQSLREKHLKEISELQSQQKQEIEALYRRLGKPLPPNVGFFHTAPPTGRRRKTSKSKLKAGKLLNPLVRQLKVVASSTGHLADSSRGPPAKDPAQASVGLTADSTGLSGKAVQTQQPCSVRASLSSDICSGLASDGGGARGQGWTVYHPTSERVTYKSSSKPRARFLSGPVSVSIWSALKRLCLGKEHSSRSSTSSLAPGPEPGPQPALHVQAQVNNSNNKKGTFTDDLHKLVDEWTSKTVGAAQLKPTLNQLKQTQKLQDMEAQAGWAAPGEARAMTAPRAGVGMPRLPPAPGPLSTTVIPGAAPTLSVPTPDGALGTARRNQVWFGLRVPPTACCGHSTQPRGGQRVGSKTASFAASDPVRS
STE20-like serine/threonine-protein kinase (Homo sapiens), sequence (Q9H2G2 whole entry, looked up): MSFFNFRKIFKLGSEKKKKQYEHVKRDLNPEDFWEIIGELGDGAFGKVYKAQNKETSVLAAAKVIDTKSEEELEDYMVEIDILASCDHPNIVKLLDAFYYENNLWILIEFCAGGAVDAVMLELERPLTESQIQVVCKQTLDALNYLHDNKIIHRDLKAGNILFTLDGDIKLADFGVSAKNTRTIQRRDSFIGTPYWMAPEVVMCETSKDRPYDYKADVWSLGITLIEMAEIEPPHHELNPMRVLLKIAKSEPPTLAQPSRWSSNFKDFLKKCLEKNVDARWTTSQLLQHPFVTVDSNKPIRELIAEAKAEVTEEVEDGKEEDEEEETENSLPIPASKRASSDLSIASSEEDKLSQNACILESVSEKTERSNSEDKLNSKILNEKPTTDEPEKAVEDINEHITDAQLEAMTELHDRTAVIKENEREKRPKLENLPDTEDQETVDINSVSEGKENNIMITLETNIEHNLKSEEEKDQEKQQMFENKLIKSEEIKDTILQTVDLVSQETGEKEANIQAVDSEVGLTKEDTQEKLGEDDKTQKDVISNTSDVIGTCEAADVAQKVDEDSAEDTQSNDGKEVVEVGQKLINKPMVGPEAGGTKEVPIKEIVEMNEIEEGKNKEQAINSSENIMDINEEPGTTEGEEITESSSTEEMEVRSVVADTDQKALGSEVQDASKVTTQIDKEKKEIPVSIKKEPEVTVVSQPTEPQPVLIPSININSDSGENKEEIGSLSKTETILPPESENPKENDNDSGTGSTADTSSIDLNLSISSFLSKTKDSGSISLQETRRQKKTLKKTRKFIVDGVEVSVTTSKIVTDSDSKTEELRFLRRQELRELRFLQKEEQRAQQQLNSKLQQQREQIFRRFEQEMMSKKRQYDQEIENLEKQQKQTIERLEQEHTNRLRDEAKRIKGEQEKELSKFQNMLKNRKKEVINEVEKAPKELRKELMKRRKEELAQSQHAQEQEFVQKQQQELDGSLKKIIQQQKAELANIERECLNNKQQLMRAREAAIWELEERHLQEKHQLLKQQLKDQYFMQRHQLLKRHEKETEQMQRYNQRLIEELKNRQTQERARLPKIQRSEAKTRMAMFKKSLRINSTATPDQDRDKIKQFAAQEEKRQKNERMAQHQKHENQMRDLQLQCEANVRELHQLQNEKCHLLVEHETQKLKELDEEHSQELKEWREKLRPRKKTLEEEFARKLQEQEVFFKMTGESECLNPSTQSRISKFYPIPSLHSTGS
Tyrosine-protein kinase Fyn (Homo sapiens), sequence (P06241 2-537 limits assumed): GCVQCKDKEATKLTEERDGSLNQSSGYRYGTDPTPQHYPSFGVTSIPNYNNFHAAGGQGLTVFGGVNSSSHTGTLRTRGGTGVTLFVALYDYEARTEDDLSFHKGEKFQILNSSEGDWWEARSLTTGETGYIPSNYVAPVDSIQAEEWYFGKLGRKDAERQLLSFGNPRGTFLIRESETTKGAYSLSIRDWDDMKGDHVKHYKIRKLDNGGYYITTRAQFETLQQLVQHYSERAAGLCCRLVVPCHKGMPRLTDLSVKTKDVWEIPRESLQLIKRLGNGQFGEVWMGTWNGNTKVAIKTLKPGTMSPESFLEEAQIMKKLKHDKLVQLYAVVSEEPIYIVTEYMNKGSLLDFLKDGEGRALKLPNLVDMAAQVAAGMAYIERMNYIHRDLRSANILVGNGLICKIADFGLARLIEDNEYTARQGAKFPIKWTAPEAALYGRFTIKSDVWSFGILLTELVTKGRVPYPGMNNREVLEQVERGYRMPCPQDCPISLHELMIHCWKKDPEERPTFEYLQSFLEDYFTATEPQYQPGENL

In general, inhibition refers to the relative decrease from the control value, in per cent. As to `COCCNC(=O)c1ccc2c(c1)nc(-c1cnc(-c3ccc(Cl)cc3)[nH]1)n2CCOC`, the inhibition in assay [1] is 11.2%; in assay [2], 49.1%; in [3], 4.41%; in the assay filed under Homo sapiens, -5.6%; in assay [4], 7.76%; in assay [5], 3.46%. Besides, the inhibition in [6] stood at 13%; in assay [7], 31.2%; in [8], 7.6%; in assay [9] it was 2.5%; in [10], 6.1%.
With `CC(C)(C)c1cc(NC(=O)Nc2ccc(Oc3ccncc3)cc2)no1`, the inhibition stood at 53.4% in assay [1]; 85.8% in assay [2]; 96.7% in [3]; 6.69% in the assay listed under Homo sapiens; 80.5% in [4]; 3.16% in assay [5]. Further, the inhibition in assay [6] is 12.9%; in assay [7], 73%; in assay [8], -0.15%; in [9] it was 12.5%; in [10], 84.2%.
For `CS(=O)(=O)c1cccc(Nc2nccc(-c3sc(N4CCOCC4)nc3-c3cccc(NS(=O)(=O)c4c(F)cccc4F)c3)n2)c1`, the inhibition in [1] was found to be 67.5%; in assay [2] it was 99.8%; in [3] it was 61.5%; in the assay listed under Homo sapiens, 8.73%; in assay [4], 6.72%; in assay [5], 43%. Moreover, the inhibition in [6] stood at 8.37%; in [7], 86%; in [8] it was 41.1%; in [9] it was 15.4%; in [10], 48.5%.
